{"source": "patent US9695155B2", "about": "“Herbicidal substituted pyrimidinyloxy benzene compounds” (E. I. DU PONT DE NEMOURS AND COMPANY, priority 2013, dated 2017)", "key": {"[1]": {"test_system": "large (Lg) crabgrass", "assay": "Test A preemergence", "type": "in vivo, Digitaria sanguinalis", "outline": "(§1)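 Injury scores run from 0, no effect, to 100, complete control, judged by eye against untreated plants roughly 10 days after treatment. Chemicals carried a surfactant in a non-phytotoxic solvent and went onto loam–sand soil preemergence or onto one- to two-leaf seedlings postemergence.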"}, "[2]": {"test_system": "pigweed", "assay": "Test A preemergence", "type": "in vivo, Amaranthus retroflexus", "outline": "as §1"}, "[3]": {"test_system": "large (Lg) crabgrass", "assay": "Test A postemergence", "type": "in vivo, Digitaria sanguinalis", "conditions": "0 to 100 scale where 0 is no effect and 100 is complete control", "outline": "as §1"}, "[4]": {"test_system": "giant foxtail", "assay": "Test A postemergence", "type": "in vivo, Setaria faberii", "conditions": "Setaria faberi, post-emergence, 240 h, 0 to 100 scale where 0 is no effect and 100 is complete control", "outline": "as §1"}, "[5]": {"test_system": "pigweed", "assay": "Test A postemergence", "type": "in vivo, Amaranthus retroflexus", "conditions": "Amaranthus retroflexus, post-emergence, 0 to 100 scale where 0 is no effect and 100 is complete control", "outline": "as §1"}, "[6]": {"test_system": "blackgrass", "assay": "Test C preemergence", "type": "in vivo, Alopecurus myosuroides", "conditions": "Alopecurus myosuroides, pre-emergence", "outline": "(§2)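 Seeds were sown in loam–sand blend and sprayed preemergence, while plants at 1- to 4-leaf stage (2–18 cm) in peat-based medium received postemergence sprays; test chemicals were formulated in a non-phytotoxic solvent with surfactant. After 13–15 days in a greenhouse, injury was rated visually against controls, 0 (no effect) to 100 (complete control).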"}, "[7]": {"test_system": "giant foxtail", "assay": "Test C preemergence", "type": "in vivo, Setaria faberii", "conditions": "Setaria faberi, pre-emergence", "outline": "as §2"}, "[8]": {"test_system": "johnsongrass", "assay": "Test C preemergence", "type": "in vivo, Sorghum halepense", "conditions": "Sorghum halepense, pre-emergence", "outline": "as §2"}, "[9]": {"test_system": "ragweed", "assay": "Test C preemergence", "type": "in vivo, Ambrosia elatior", "conditions": "Ambrosia artemisiifolia, pre-emergence", "outline": "as §2"}, "[10]": {"test_system": "corn", "assay": "Test C postemergence", "type": "in vivo, Zea mays", "conditions": "Zea mays, post-emergence, postemergence", "outline": "as §2"}, "[11]": {"test_system": "large (Lg) crabgrass", "assay": "Test C postemergence", "type": "in vivo, Digitaria sanguinalis", "conditions": "Digitaria sanguinalis, post-emergence", "outline": "as §2"}, "[12]": {"test_system": "johnsongrass", "assay": "Test C postemergence", "type": "in vivo, Sorghum halepense", "conditions": "Sorghum halepense, post-emergence", "outline": "as §2"}, "[13]": {"test_system": "oilseed rape", "assay": "Test C postemergence", "type": "in vivo, Brassica napus", "outline": "as §2"}, "[14]": {"test_system": "waterhemp", "assay": "Test C postemergence", "type": "in vivo, Amaranthus rudis", "outline": "as §2"}, "[15]": {"test_system": "velvetleaf", "assay": "Test C postemergence", "type": "in vivo, Abutilon theophrasti", "outline": "as §2"}, "[16]": {"conditions": "31 g ai/ha, postemergence, visual rating, scale 0 to 100 (0 no effect, 100 complete control), 13 to 15 days"}}, "data": [{"smiles": "FC(F)c1cccc(Oc2ncc(Cl)cn2)c1-n1cc(Br)cn1", "note": "[Compound 194, 2-[2-(4-bromo-1H-pyrazol-1-yl)-3-(difluoromethyl)phenoxy]-5-chloropyrimidine]", "values": [{"measurement": "Crabgrass, Large plant response rating (0 to 100 scale)", "setting": "[1]; 125 g ai/ha", "value": 100}, {"measurement": "pest or weed control at 500 g/ha", "setting": "[1]; Digitaria sanguinalis, pre-emergence, 240 h, 500 g ai/ha, 0 to 100 scale where 0 is no effect and 100 is complete control, read-out: Crabgrass, Large plant response rating", "value": 100, "unit": "%"}, {"measurement": "Pigweed plant response rating (0 to 100 scale)", "setting": "[2]; 125 g ai/ha", "value": 100}, {"measurement": "pest or weed control at 500 g/ha", "setting": "[2]; Amaranthus retroflexus, pre-emergence, 240 h, 500 g ai/ha, 0 to 100 scale where 0 is no effect and 100 is complete control, read-out: Pigweed plant response rating", "value": 100, "unit": "%"}, {"measurement": "Crabgrass, Large plant response rating", "setting": "[3]; 125 g ai/ha", "value": 90}, {"measurement": "pest or weed control at 500 g/ha", "setting": "[3]; Digitaria sanguinalis, post-emergence, 240 h, 500 g ai/ha, read-out: Plant response rating, Crabgrass, Large", "value": 100, "unit": "%"}, {"measurement": "pest or weed control at 125 g/ha", "setting": "[4]; 125 g ai/ha, read-out: Foxtail, Giant plant response rating", "value": 90, "unit": "%"}, {"measurement": "pest or weed control at 500 g/ha", "setting": "[4]; 500 g ai/ha, read-out: Plant response rating, Foxtail, Giant", "value": 100, "unit": "%"}, {"measurement": "pest or weed control at 500 g/ha", "setting": "[5]; 500 g ai/ha, read-out: Plant response rating, Pigweed", "value": 100, "unit": "%"}, {"measurement": "pest or weed control at 125 g/ha", "setting": "[5]; 240 h, 125 g ai/ha, read-out: Pigweed plant response rating", "value": 100, "unit": "%"}, {"measurement": "pest or weed control at 125 g/ha", "setting": "[6]; 125 g ai/ha, preemergence, scale 0 (no effect) to 100 (complete control), read-out: Blackgrass plant response rating", "value": 90, "unit": "%"}, {"measurement": "pest or weed control at 250 g/ha", "setting": "[6]; 250 g ai/ha, preemergence, scale 0 (no effect) to 100 (complete control), read-out: Blackgrass plant response rating", "value": 90, "unit": "%"}, {"measurement": "pest or weed control at 62 g/ha", "setting": "[6]; Preemergence, 62 g ai/ha, scale 0 to 100, 0 no effect, 100 complete control, read-out: Plant response rating, Blackgrass", "value": 50, "unit": "%"}, {"measurement": "pest or weed control at 125 g/ha", "setting": "[7]; 125 g ai/ha, preemergence, scale 0 (no effect) to 100 (complete control), read-out: Foxtail, Giant plant response rating", "value": 100, "unit": "%"}, {"measurement": "pest or weed control at 250 g/ha", "setting": "[7]; 250 g ai/ha, preemergence, scale 0 (no effect) to 100 (complete control), read-out: Foxtail, Giant plant response rating", "value": 100, "unit": "%"}, {"measurement": "pest or weed control at 62 g/ha", "setting": "[7]; Preemergence, 62 g ai/ha, scale 0 to 100, 0 no effect, 100 complete control, read-out: Plant response rating, Foxtail, Giant", "value": 90, "unit": "%"}, {"measurement": "pest or weed control at 125 g/ha", "setting": "[8]; 125 g ai/ha, preemergence, scale 0 (no effect) to 100 (complete control), read-out: Johnsongrass plant response rating", "value": 80, "unit": "%"}, {"measurement": "pest or weed control at 250 g/ha", "setting": "[8]; 250 g ai/ha, preemergence, scale 0 (no effect) to 100 (complete control), read-out: Johnsongrass plant response rating", "value": 95, "unit": "%"}, {"measurement": "pest or weed control at 62 g/ha", "setting": "[8]; Preemergence, 62 g ai/ha, scale 0 to 100, 0 no effect, 100 complete control, read-out: Plant response rating, Johnsongrass", "value": 25, "unit": "%"}, {"measurement": "pest or weed control at 125 g/ha", "setting": "[9]; 125 g ai/ha, preemergence, scale 0 (no effect) to 100 (complete control), read-out: Ragweed plant response rating", "value": 20, "unit": "%"}, {"measurement": "pest or weed control at 250 g/ha", "setting": "[9]; 250 g ai/ha, preemergence, scale 0 (no effect) to 100 (complete control), read-out: Ragweed plant response rating", "value": 75, "unit": "%"}, {"measurement": "pest or weed control at 62 g/ha", "setting": "[9]; Preemergence, 62 g ai/ha, scale 0 to 100, 0 no effect, 100 complete control, read-out: Plant response rating, Ragweed", "value": 10, "unit": "%"}, {"measurement": "plant injury at 31 g/ha", "setting": "[10]; 31 g ai/ha, visual rating, scale 0 to 100 (0 no effect, 100 complete control), 13 to 15 days, read-out: Corn plant response rating", "value": 5, "unit": "%"}, {"measurement": "Corn plant response rating (crop injury, 0 = no effect, 100 = complete kill) at 125 g/ha", "setting": "[10]; 125 g ai/ha, visual rating, scale 0 to 100 (0 no effect, 100 complete control)", "value": 25, "unit": "%"}, {"measurement": "plant injury at 250 g/ha", "setting": "[10]; 250 g ai/ha, read-out: Plant response rating (0 to 100), Corn", "value": 30, "unit": "%"}, {"measurement": "pest or weed control at 31 g/ha", "setting": "[11]; 31 g ai/ha, postemergence, visual rating, scale 0 to 100 (0 no effect, 100 complete control), 13 to 15 days, read-out: Crabgrass, Large plant response rating", "value": 10, "unit": "%"}, {"measurement": "pest or weed control at 125 g/ha", "setting": "[11]; 125 g ai/ha, postemergence, visual rating, scale 0 to 100 (0 no effect, 100 complete control), read-out: Plant response rating, Crabgrass, Large", "value": 10, "unit": "%"}, {"measurement": "pest or weed control at 250 g/ha", "setting": "[11]; 250 g ai/ha, postemergence, read-out: Plant response rating (0 to 100), Crabgrass, Large", "value": 50, "unit": "%"}, {"measurement": "pest or weed control at 62 g/ha", "setting": "[11]; Postemergence, 62 g ai/ha, scale 0 to 100 (0 no effect, 100 complete control), 13 to 15 days, read-out: Plant response rating, Crabgrass, Large", "value": 10, "unit": "%"}, {"measurement": "pest or weed control at 125 g/ha", "setting": "[12]; 125 g ai/ha, postemergence, visual rating, scale 0 to 100 (0 no effect, 100 complete control), read-out: Plant response rating, Johnsongrass", "value": 25, "unit": "%"}, {"measurement": "pest or weed control at 250 g/ha", "setting": "[12]; 250 g ai/ha, postemergence, read-out: Plant response rating (0 to 100), Johnsongrass", "value": 35, "unit": "%"}, {"measurement": "pest or weed control at 62 g/ha", "setting": "[12]; Postemergence, 62 g ai/ha, scale 0 to 100 (0 no effect, 100 complete control), 13 to 15 days, read-out: Plant response rating, Johnsongrass", "value": 5, "unit": "%"}, {"measurement": "Oilseed Rape plant response rating", "setting": "[13]; [16]", "value": 30}, {"measurement": "plant injury at 125 g/ha", "setting": "[13]; Brassica napus, post-emergence, 125 g ai/ha, postemergence, visual rating, scale 0 to 100 (0 no effect, 100 complete control), read-out: Plant response rating, Oilseed Rape", "value": 85, "unit": "%"}, {"measurement": "plant injury at 250 g/ha", "setting": "[13]; Brassica napus, post-emergence, 250 g ai/ha, postemergence, read-out: Plant response rating (0 to 100), Oilseed Rape", "value": 90, "unit": "%"}, {"measurement": "plant injury at 62 g/ha", "setting": "[13]; Brassica napus, post-emergence, Postemergence, 62 g ai/ha, scale 0 to 100 (0 no effect, 100 complete control), 13 to 15 days, read-out: Plant response rating, Oilseed Rape", "value": 40, "unit": "%"}, {"measurement": "Waterhemp plant response rating", "setting": "[14]; [16]", "value": 80}, {"measurement": "pest or weed control at 125 g/ha", "setting": "[14]; Amaranthus tuberculatus, post-emergence, 125 g ai/ha, postemergence, visual rating, scale 0 to 100 (0 no effect, 100 complete control), read-out: Plant response rating, Waterhemp", "value": 85, "unit": "%"}, {"measurement": "pest or weed control at 250 g/ha", "setting": "[14]; Amaranthus tuberculatus, post-emergence, 250 g ai/ha, postemergence, read-out: Plant response rating (0 to 100), Waterhemp", "value": 90, "unit": "%"}, {"measurement": "pest or weed control at 62 g/ha", "setting": "[14]; Amaranthus tuberculatus, post-emergence, Postemergence, 62 g ai/ha, scale 0 to 100 (0 no effect, 100 complete control), 13 to 15 days, read-out: Plant response rating, Waterhemp", "value": 80, "unit": "%"}, {"measurement": "Velvetleaf plant response rating", "setting": "[15]; [16]", "value": 40}, {"measurement": "pest or weed control at 125 g/ha", "setting": "[15]; Abutilon theophrasti, post-emergence, 125 g ai/ha, postemergence, visual rating, scale 0 to 100 (0 no effect, 100 complete control), read-out: Plant response rating, Velvetleaf", "value": 70, "unit": "%"}, {"measurement": "pest or weed control at 250 g/ha", "setting": "[15]; Abutilon theophrasti, post-emergence, 250 g ai/ha, postemergence, read-out: Plant response rating (0 to 100), Velvetleaf", "value": 75, "unit": "%"}, {"measurement": "pest or weed control at 62 g/ha", "setting": "[15]; Abutilon theophrasti, post-emergence, Postemergence, 62 g ai/ha, scale 0 to 100 (0 no effect, 100 complete control), 13 to 15 days, read-out: Plant response rating, Velvetleaf", "value": 45, "unit": "%"}]}]}
